Laboratory results published in PubChem BioAssay (NCI).
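Five concentrations, 48 hours, 96-well plates. GI50: concentration for 50% inhibition of growth. TGI marks complete inhibition of growth.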

What was measured:
Assay in all cases: DTP human tumour cell line panel, 48 h
SF-539 CNS = test system: SF-539 CNS
IGROV1 ovarian = test system: IGROV1 ovarian
786-0 renal = test system: 786-0 renal
SK-MEL-2 melanoma = test system: SK-MEL-2 melanoma
NCI-H522 lung = test system: NCI-H522 lung
UACC-62 melanoma = test system: UACC-62 melanoma
OVCAR-3 ovarian = test system: OVCAR-3 ovarian
HCT-116 colon = test system: HCT-116 colon
LOX IMVI melanoma = test system: LOX IMVI melanoma
RXF 393 renal = test system: RXF 393 renal
TK-10 renal = test system: TK-10 renal
EKVX NSCLC = test system: EKVX NSCLC
MOLT-4 leukemia = test system: MOLT-4 leukemia
UO-31 renal = test system: UO-31 renal
SK-OV-3 ovarian = test system: SK-OV-3 ovarian
NCI-H460 lung = test system: NCI-H460 lung
SK-MEL-28 melanoma = test system: SK-MEL-28 melanoma
SF-268 CNS = test system: SF-268 CNS
SF-295 CNS = test system: SF-295 CNS
NCI/ADR-RES ovarian = test system: NCI/ADR-RES ovarian
HL-60(TB) leukemia = test system: HL-60(TB) leukemia
A498 renal = test system: A498 renal
COLO 205 colon = test system: COLO 205 colon
NCI-H226 lung = test system: NCI-H226 lung
OVCAR-5 ovarian = test system: OVCAR-5 ovarian
HCT-15 colon = test system: HCT-15 colon
MDA-MB-435 = test system: MDA-MB-435
MDA-MB-231 breast = test system: MDA-MB-231 breast
CAKI-1 renal = test system: CAKI-1 renal
OVCAR-8 ovarian = test system: OVCAR-8 ovarian
PC-3 prostate = test system: PC-3 prostate
SNB-75 CNS = test system: SNB-75 CNS
U251 CNS = test system: U251 CNS
SNB-19 CNS = test system: SNB-19 CNS
HOP-92 NSCLC = test system: HOP-92 NSCLC
HT29 colon = test system: HT29 colon
SR leukemia = test system: SR leukemia
HOP-62 NSCLC = test system: HOP-62 NSCLC
T-47D breast = test system: T-47D breast
CCRF-CEM leukemia = test system: CCRF-CEM leukemia
ACHN renal = test system: ACHN renal
UACC-257 melanoma = test system: UACC-257 melanoma
OVCAR-4 ovarian = test system: OVCAR-4 ovarian
M14 melanoma = test system: M14 melanoma
SW-620 colon = test system: SW-620 colon
KM12 colon = test system: KM12 colon
HS 578T breast = test system: HS 578T breast
SK-MEL-5 melanoma = test system: SK-MEL-5 melanoma
RPMI-8226 leukemia = test system: RPMI-8226 leukemia
K-562 leukemia = test system: K-562 leukemia
DU-145 prostate = test system: DU-145 prostate
BT-549 breast = test system: BT-549 breast
SN12C renal = test system: SN12C renal
HCC-2998 colon = test system: HCC-2998 colon
A549 NSCLC = test system: A549 NSCLC
MCF7 breast = test system: MCF7 breast
NCI-H23 lung = test system: NCI-H23 lung

`Cc1ccc(-c2c3c(nn2-c2ccc(S(=O)(=O)NC(=O)Nc4ccccc4)cc2)-c2ccccc2C3)cc1` showed a GI50 (SF-539 CNS) of 18.2 µM, a TGI (SF-539 CNS) of 38.9 µM and a GI50 (IGROV1 ovarian) of 3.67 µM. It also gave a TGI (IGROV1 ovarian) of 16.5 µM, a GI50 (786-0 renal) of 22.7 µM and a TGI (786-0 renal) of over 100 µM. The GI50 (SK-MEL-2 melanoma) was 16.1 µM, the TGI (SK-MEL-2 melanoma) was 32.5 µM and the GI50 (NCI-H522 lung) was 11.7 µM. It also gave a TGI (NCI-H522 lung) of 30.5 µM, a GI50 (UACC-62 melanoma) of 12.8 µM and a TGI (UACC-62 melanoma) of 27.4 µM. It also gave a GI50 (OVCAR-3 ovarian) of 32.9 µM, a TGI (OVCAR-3 ovarian) of over 100 µM and a GI50 (HCT-116 colon) of 19.2 µM. For the same molecule, the TGI (HCT-116 colon) was over 100 µM, the GI50 (LOX IMVI melanoma) was 12.3 µM and the TGI (LOX IMVI melanoma) was over 100 µM. For the same molecule, the GI50 (RXF 393 renal) was 17.9 µM, the TGI (RXF 393 renal) was 43.1 µM and the GI50 (TK-10 renal) was 10.3 µM. The TGI (TK-10 renal) was 24.8 µM, the GI50 (EKVX NSCLC) was 18.1 µM and the TGI (EKVX NSCLC) was 43.8 µM. The GI50 (MOLT-4 leukemia) was 5.14 µM, the TGI (MOLT-4 leukemia) was over 100 µM and the GI50 (UO-31 renal) was 8.78 µM. The TGI (UO-31 renal) was 24.3 µM, the GI50 (SK-OV-3 ovarian) was 18.2 µM and the TGI (SK-OV-3 ovarian) was 48.1 µM. The GI50 (NCI-H460 lung) was 19.3 µM, the TGI (NCI-H460 lung) was 70.2 µM and the GI50 (SK-MEL-28 melanoma) was 21.2 µM. The TGI (SK-MEL-28 melanoma) was 46.9 µM, the GI50 (SF-268 CNS) was 19.1 µM and the TGI (SF-268 CNS) was 55.7 µM. The GI50 (SF-295 CNS) was 34.5 µM, the TGI (SF-295 CNS) was over 100 µM and the GI50 (NCI/ADR-RES ovarian) was 23.1 µM. It also gave a TGI (NCI/ADR-RES ovarian) of 75.5 µM, a GI50 (HL-60(TB) leukemia) of 24.2 µM and a TGI (HL-60(TB) leukemia) of 83.7 µM. The GI50 (A498 renal) was 19.6 µM, the TGI (A498 renal) was 36.6 µM and the GI50 (COLO 205 colon) was 19.5 µM. For the same molecule, the TGI (COLO 205 colon) was 45.9 µM, the GI50 (NCI-H226 lung) was 15.4 µM and the TGI (NCI-H226 lung) was 56 µM. It also gave a GI50 (OVCAR-5 ovarian) of 30.1 µM, a TGI (OVCAR-5 ovarian) of 97.2 µM and a GI50 (HCT-15 colon) of 15.5 µM. It also gave a TGI (HCT-15 colon) of 52.2 µM, a GI50 (MDA-MB-435) of 28.1 µM and a TGI (MDA-MB-435) of over 100 µM. The GI50 (MDA-MB-231 breast) was 17.5 µM, the TGI (MDA-MB-231 breast) was 55 µM and the GI50 (CAKI-1 renal) was 15.4 µM. The TGI (CAKI-1 renal) was 45.5 µM, the GI50 (OVCAR-8 ovarian) was 19.1 µM and the TGI (OVCAR-8 ovarian) was 52.9 µM. The GI50 (PC-3 prostate) was 16 µM, the TGI (PC-3 prostate) was 38 µM and the GI50 (SNB-75 CNS) was 22.9 µM. The TGI (SNB-75 CNS) was 66.3 µM, the GI50 (U251 CNS) was 17.5 µM and the TGI (U251 CNS) was 37.6 µM. It also gave a GI50 (SNB-19 CNS) of 30 µM, a TGI (SNB-19 CNS) of over 100 µM and a GI50 (HOP-92 NSCLC) of 18.1 µM. It also gave a TGI (HOP-92 NSCLC) of 44.9 µM, a GI50 (HT29 colon) of 35.7 µM and a TGI (HT29 colon) of over 100 µM. The GI50 (SR leukemia) was 2.26 µM, the TGI (SR leukemia) was 6.92 µM and the GI50 (HOP-62 NSCLC) was 32 µM. The TGI (HOP-62 NSCLC) was over 100 µM, the GI50 (T-47D breast) was 30.7 µM and the TGI (T-47D breast) was over 100 µM. For the same molecule, the GI50 (CCRF-CEM leukemia) was 2.13 µM, the TGI (CCRF-CEM leukemia) was over 100 µM and the GI50 (ACHN renal) was 14.6 µM. It also gave a TGI (ACHN renal) of 30.5 µM, a GI50 (UACC-257 melanoma) of 18.7 µM and a TGI (UACC-257 melanoma) of 39.9 µM. It also gave a GI50 (OVCAR-4 ovarian) of 19.7 µM, a TGI (OVCAR-4 ovarian) of 51.5 µM and a GI50 (M14 melanoma) of 24.6 µM. It also gave a TGI (M14 melanoma) of 87.2 µM, a GI50 (SW-620 colon) of 12 µM and a TGI (SW-620 colon) of over 100 µM. For the same molecule, the GI50 (KM12 colon) was 18 µM, the TGI (KM12 colon) was 51.2 µM and the GI50 (HS 578T breast) was 24.1 µM. For the same molecule, the TGI (HS 578T breast) was 73.9 µM, the GI50 (SK-MEL-5 melanoma) was 15.1 µM and the TGI (SK-MEL-5 melanoma) was 36.5 µM. It also gave a GI50 (RPMI-8226 leukemia) of 7.22 µM, a TGI (RPMI-8226 leukemia) of 69.3 µM and a GI50 (K-562 leukemia) of 11.1 µM. For the same molecule, the TGI (K-562 leukemia) was over 100 µM, the GI50 (DU-145 prostate) was 15.3 µM and the TGI (DU-145 prostate) was 33.9 µM. For the same molecule, the GI50 (BT-549 breast) was 18.8 µM, the TGI (BT-549 breast) was 44.2 µM and the GI50 (SN12C renal) was 16.9 µM. For the same molecule, the TGI (SN12C renal) was 35.8 µM, the GI50 (HCC-2998 colon) was 13.6 µM and the TGI (HCC-2998 colon) was 37.9 µM. It also gave a GI50 (A549 NSCLC) of 28 µM, a TGI (A549 NSCLC) of over 100 µM and a GI50 (MCF7 breast) of 20.5 µM. The TGI (MCF7 breast) was over 100 µM, the GI50 (NCI-H23 lung) was 15 µM and the TGI (NCI-H23 lung) was 37.6 µM.
